Results: the supplement of paper PMC10307832

Tests used:
Assay in all cases: relative viability (nuclei count vs DMSO), 5 days (fraction); higher = more cells survive
[1] = compound: CN1C=C(C2=CC=CC=C21)/C=C\3/C4=C(C=CC=N4)NC3=O + CC(=O)c1c(C)c2cnc(Nc3ccc(N4CCNCC4)cn3)nc2n(C2CCCC2)c1=O [Palbociclib] (partner 0.5 µM)
How it was run: (§1)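 After 5 days of treatment, lung cancer cells in 1536-well plates were fixed and stained in a single step (final 0.05% Triton X-100, 1% formaldehyde, 1 ug/ml Hoechst) and their nuclei counted on 4× images. Treatment had been applied by pin tool the day after seeding as one drug alone or as a fixed anchor-drug dose with five library-drug doses (not always all listed) in √10 steps. Relative viability is the nuclei count of treated wells divided by that of vehicle wells, and values are medians of duplicate plates.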

[2] = compound: CN1C=C(C2=CC=CC=C21)/C=C\3/C4=C(C=CC=N4)NC3=O + O=C(c1cc(Cc2n[nH]c(=O)c3ccccc23)ccc1F)N1CCN(C(=O)C2CC2)CC1 [Olaparib] (partner 8 µM)
How it was run: as §1

[3] = compound: CN1C=C(C2=CC=CC=C21)/C=C\3/C4=C(C=CC=N4)NC3=O + CS(=O)(=O)CCNCc1ccc(-c2ccc3ncnc(Nc4ccc(OCc5cccc(F)c5)c(Cl)c4)c3c2)o1 [Lapatinib] (partner 2 µM)
How it was run: as §1

[4] = compound: CN1C=C(C2=CC=CC=C21)/C=C\3/C4=C(C=CC=N4)NC3=O + C[C@]1(O)C[C@@H](c2nc(-c3ccc4ccc(-c5ccccc5)nc4c3)c3c(N)nccn32)C1 [Linsitinib] (partner 1 µM)
How it was run: as §1

Cell Line	relative viability ([1]; first compound 0.02 µM)	relative viability ([1]; first compound 0.6325 µM)	relative viability ([1]; first compound 2 µM)	relative viability ([2]; first compound 0.02 µM)	relative viability ([2]; first compound 0.6325 µM)	relative viability ([2]; first compound 2 µM)	relative viability ([1]; first compound 0.06325 µM)	relative viability ([1]; first compound 0.2 µM)	relative viability ([3]; first compound 0.02 µM)	relative viability ([3]; first compound 0.06325 µM)	relative viability ([3]; first compound 0.2 µM)	relative viability ([3]; first compound 0.6325 µM)	relative viability ([3]; first compound 2 µM)	relative viability ([4]; first compound 0.02 µM)	relative viability ([4]; first compound 0.06325 µM)	relative viability ([4]; first compound 0.2 µM)	relative viability ([4]; first compound 0.6325 µM)	relative viability ([4]; first compound 2 µM)	relative viability ([2]; first compound 0.06325 µM)	relative viability ([2]; first compound 0.2 µM)
SW 900	0.428	0.542	0.563	0.463	0.768	0.655														
PC-3 [JPC-3]	0.535	0.562	0.515	1.03	1.2	1.16	0.521	0.545	0.405	0.425	0.441	0.376	0.447	0.947	0.902	0.974	0.889	0.917	1.1	1.12
NCI-H1703				0.377	0.401	0.421			0.962	0.941	1.11	1.25	1.29	0.489	0.848	0.581	0.94	1.02	0.513	0.419
EPLC-272H	0.331	0.336	0.274	1.16		0.682	0.271		0.979	0.819		0.995	0.883	1.54	1.12		1.31	1.23	0.706	0.712
NCI-H1792	0.624		0.559	0.502	0.254	0.376	0.679	0.656	0.588	0.96	0.8		0.672	0.37	0.495	0.391		0.486	0.349	0.32
NCI-H2085	0.452	0.471	0.461	0.806	0.857	0.847	0.473	0.508	0.746	0.654	0.596	0.605	0.813	0.867	0.825	0.867	0.866	1.02	0.75	0.86
LK-2	0.232	0.576	0.678	0.563	0.422	0.66	0.421	0.447		0.568		0.756	1.03	0.365	0.333		0.474	0.504	0.528	
NCI-H1395	0.567	0.618	0.581	0.461	0.527	0.457	0.534	0.581	0.878	1.01		0.948	0.885	0.977	1.11		1.15	0.945	0.476	0.455
ABC-1	0.52	0.593	0.738	0.976	0.826	0.86	0.76	0.789	1.39	1.16	1.12	1.25	1.28	0.797	0.704	0.604	0.729	0.712	0.745	0.612
RERF-LC-KJ	0.937	0.963	1.12	0.736	0.528	0.468	1.07	0.988	0.984	0.813	0.821	0.7	0.752	0.886	0.935	0.929	0.813	0.84	0.681	0.763
LU99A	0.374	0.381	0.432	0.253	0.21	0.278	0.417	0.393	0.986	0.805	0.9	0.964	0.85	0.534	0.506	0.509	0.485	0.617	0.24	0.274
NCI-H650	0.385	0.356	0.391	0.464	0.434	0.411	0.341		0.824	0.738		0.754	0.82	0.91	0.955		0.677	0.807	0.418	
NCI-H2347	0.418	0.395	0.416	0.491	0.565	0.616	0.41	0.398	0.953	1.02	0.876	0.793	0.881	0.998	0.963	0.944	0.986	0.959	0.503	0.539
HARA	0.257	0.257	0.227	0.247	0.726	0.794	0.297	0.192	0.703	0.653	0.665	0.857	0.768	0.93	0.92	1.03	0.932	1.06	0.747	
NCI-H2228	0.744	0.769	0.906	0.951	0.476	0.768	0.572	0.394	1.24	0.88		1.02	0.972	0.53	0.463		0.603	0.759	0.534	0.579
EKVX	0.323	0.273	0.732	0.892	0.8	0.717			0.221	0.148	0.156	0.188	0.167	0.911	0.926	0.921	0.729	0.883		
HCC-827	0.444	0.475	0.5	0.624	0.638	0.764	0.462		0.21	0.185		0.159	0.179	0.929	0.923		0.944	0.926	0.61	
NCI-H1755	0.434	0.433	0.427	0.903	0.699	0.681	0.463	0.431	0.966	0.918	0.903	0.959	0.958	0.95	1.01	0.967	0.968	0.991	0.946	0.83
